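Protocol summary: plate cells (96-well), add compound at 5 concentrations, incubate 48 h, interpolate endpoints linearly. The concentration for 50% growth inhibition is given as GI50. Definition used: TGI = concentration required for complete inhibition of growth.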
Tests used:
Assay in all cases: NCI-60 cell line screen, 48 h
SF-539 CNS = tested on: SF-539 CNS
RPMI-8226 leukemia = tested on: RPMI-8226 leukemia
OVCAR-5 ovarian = tested on: OVCAR-5 ovarian
CCRF-CEM leukemia = tested on: CCRF-CEM leukemia
HCC-2998 colon = tested on: HCC-2998 colon
UO-31 renal = tested on: UO-31 renal
UACC-62 melanoma = tested on: UACC-62 melanoma
M14 melanoma = tested on: M14 melanoma
SK-MEL-28 melanoma = tested on: SK-MEL-28 melanoma
HT29 colon = tested on: HT29 colon

| Compound | TGI (SF-539 CNS) [µM] | TGI (RPMI-8226 leukemia) [µM] | TGI (OVCAR-5 ovarian) [µM] | TGI (CCRF-CEM leukemia) [µM] | TGI (HCC-2998 colon) [µM] | TGI (UO-31 renal) [µM] | TGI (UACC-62 melanoma) [µM] | TGI (M14 melanoma) [µM] | TGI (SK-MEL-28 melanoma) [µM] | TGI (HT29 colon) [µM] | GI50 (HT29 colon) [µM] | GI50 (SF-539 CNS) [µM] | GI50 (RPMI-8226 leukemia) [µM] | GI50 (OVCAR-5 ovarian) [µM] | GI50 (CCRF-CEM leukemia) [µM] | GI50 (HCC-2998 colon) [µM] | GI50 (UO-31 renal) [µM] | GI50 (UACC-62 melanoma) [µM] | GI50 (M14 melanoma) [µM] | GI50 (SK-MEL-28 melanoma) [µM] |
| --- | --- | --- | --- | --- | --- | --- | --- | --- | --- | --- | --- | --- | --- | --- | --- | --- | --- | --- | --- | --- |
| Cc1ccc(S(=O)(=O)N/N=C(\c2nc3ccc([N+](=O)[O-])cc3[nH]c2=O)C(O)c2ccc([N+](=O)[O-])cc2)cc1 (centres undefined) | > 100 | > 100 | > 100 | > 100 | > 100 | > 100 | > 100 | > 100 | > 100 | – | – | – | – | – | – | – | – | – | – | – |
| Cc1ccccc1NC(=O)/C=N/O | – | > 100 | > 100 | – | > 100 | > 100 | 27.9 | > 100 | > 100 | > 100 | – | – | – | – | – | – | – | – | – | – |
| C/C=C/C/C=C/[C@H](C)C[C@H](O)[C@@H]1C[C@@H]2O[C@H]2/C=C/[C@@H]2OC(C)(C)O[C@H]2/C=C/C[C@H](C)CC(=O)O1 | > 100 | 37 | > 100 | 56.4 | > 100 | 18.7 | 20.2 | > 100 | > 100 | > 100 | 12 | 26.3 | 3.16 | 73.8 | 2.78 | > 100 | 3.01 | 4.31 | 12.9 | 47.8 |
| COCCOCCOCc1n(Cc2ccc3ccccc3c2)c2ccccc2[n+]1Cc1ccc2ccccc2c1 | 2.01 | 1.15 | 2.26 | 2.29 | 2.06 | 4.58 | 1.45 | 1.99 | 1.92 | 1.34 | 0.321 | 0.587 | 0.117 | 0.927 | 0.488 | 0.56 | 1.83 | 0.329 | 0.491 | 0.503 |
| N#COc1ccc(Oc2ccccc2)cc1 | 92.4 | 83.5 | > 100 | 60 | > 100 | > 100 | > 100 | > 100 | > 100 | > 100 | – | – | – | – | – | – | – | – | – | – |
| CC(C)(C)OP(=O)(OC(C)(C)C)C(O)c1ccc(/C=C(\C#N)C(N)=O)cc1 (centres undefined) | > 100 | > 100 | > 100 | > 100 | > 100 | > 100 | > 100 | > 100 | > 100 | > 100 | – | – | – | – | – | – | – | – | – | – |
| Cn1c(=O)nc2n(-c3ccc(Cl)cc3)c(-c3ccccc3)c(-c3ccccc3)nc-2c1=O | 71.5 | 71.1 | > 100 | 77.1 | > 100 | 60.7 | 32.5 | 45.5 | 86.2 | > 100 | – | – | – | – | – | – | – | – | – | – |
| Nc1ccc(-c2cc(C(=O)Nc3nccs3)[nH]c(=S)n2)cc1 | > 100 | > 100 | > 100 | > 100 | – | > 100 | > 100 | > 100 | > 100 | > 100 | – | – | – | – | – | – | – | – | – | – |
| CNC(=O)c1cc(Oc2cccc3nc(NC(=O)Nc4cc(C(F)(F)F)cc(C(F)(F)F)c4)ccc23)ccn1 | 37.9 | – | > 100 | > 100 | > 100 | 40.5 | 22.5 | 62.8 | > 100 | > 100 | 3.51 | 6.68 | – | 13.3 | 29.4 | 15.5 | 4.91 | 3.56 | 10.2 | 4.67 |
| CN(C)CCC(/C=C/c1ccccc1)=N\Nc1ccc(Cl)c(Cl)c1 | 4.17 | 9.53 | 15.6 | 10.1 | – | 3.41 | 7.25 | 7.22 | 22.6 | 5.01 | – | – | – | – | – | – | – | – | – | – |
| C=C1c2ccccc2C(=O)c2c1c1c(C(=O)OC)c(OC(=O)OCc3ccc([N+](=O)[O-])cc3)ccc1n2Cc1ccccc1 | 32.3 | 13.1 | 49.5 | 6.83 | 39 | 45.4 | 22.6 | > 100 | – | – | – | 6.47 | 2.3 | 17.7 | 1.78 | 16.7 | 8.28 | 10.5 | 27.6 | – |
| O=C1N2Cc3c4ccc5c3CN3C(=O)N6Cc7c(ccc(c7CN1C6(c1ccccc1)C23c1ccccc1)OCCOCCOc1cc(Br)c(Br)cc1OCCOCCO4)OCCOCCOc1cc(Br)c(Br)cc1OCCOCCO5 (centres undefined) | 37.9 | > 100 | – | > 100 | > 100 | > 100 | > 100 | > 100 | > 100 | > 100 | – | – | – | – | – | – | – | – | – | – |
| Nc1ccccc1C#C/C=C\C#CC#C/C=C\C#Cc1ccccc1N | 16.6 | 5.82 | 42.1 | 16 | 8.03 | 16.8 | 13.1 | – | 36.7 | 32.7 | 8.36 | 3.96 | 0.515 | 14.9 | 0.0892 | 2.25 | 1.94 | 2.18 | – | 14.6 |
| CC1(C)CCCC2(C)C3C(O)CC2(C)C(O)C31 (centres undefined) | > 100 | – | > 100 | > 100 | > 100 | > 100 | > 100 | > 100 | > 100 | > 100 | – | – | – | – | – | – | – | – | – | – |
| O=C(Nc1cccc(-n2cc(-c3ccncc3)c(-c3ccc(O)c(Cl)c3)n2)c1)c1ccc2c(c1)OCCO2 | > 100 | > 100 | > 100 | > 100 | > 100 | > 100 | > 100 | > 100 | – | > 100 | 7.03 | 6.63 | 2.19 | > 100 | 3.75 | > 100 | 4.03 | 7.96 | 5.83 | – |
| O=c1[nH]c2cc([N+](=O)[O-])ccc2nc1/C(=N/Nc1ccccc1)C(O)c1ccco1 (centres undefined) | > 100 | > 100 | – | > 100 | > 100 | > 100 | > 100 | > 100 | – | > 100 | – | – | – | – | – | – | – | – | – | – |
| Cc1ccc(S(=O)(=O)NC(=O)NCCc2ccccc2)cc1 | > 100 | > 100 | > 100 | > 100 | > 100 | > 100 | > 100 | > 100 | > 100 | – | – | – | – | – | – | – | – | – | – | – |
| COc1ccc2c3c([nH]c(=O)c2c1C(=O)O)-c1ccccc1CC3 | > 100 | > 100 | > 100 | > 100 | > 100 | > 100 | – | > 100 | > 100 | > 100 | – | – | – | – | – | – | – | – | – | – |
